{"source": "patent US5385931A", "about": "“Sulfonamides derived from benzocyclic or benzoheterocyclic acids, their preparation and application in therapeutics” (Pierre Fabre Medicament, priority 1989, dated 1995)", "key": {"Solubility in water": {"test": "Solubility in water", "format": "physicochemical", "conditions": "for solubility: read-out: soluble in water to give a solution of"}, "[1]": {"test_system": "blood platelet aggregation induced by U.46619", "test": "In vitro rabbit platelet aggregation induced by U.46619", "format": "cell-based, New Zealand rabbits", "conditions": "Oryctolagus cuniculus; rabbit platelet-rich plasma; U.46619 1.05 to 2.44 micromoles; pre-incubated 1 min at 37° C., pH 7.4", "protocol": "(§1) Blood is taken from white male New Zealand rabbits which have not received any treatment capable of disrupting the platelet functions.\n(§2) After having allowed the first drops to flow freely, the blood is collected in plastic tubes containing 3.8% (wt/v) trisodium citrate 5.5 H2 O, the citrate/blood ratio being 1 volume of citrate per 9 volumes of blood.\n(§3) The blood platelet aggregation study is carried out starting from plasmas rich in platelets obtained by centrifuging the above blood samples at low speed. It is measured with the aid of a Mustard aggregometer at a wavelength of 609 nm with a stirring speed of 1,100 revolutions/min.\n(§4) The products to be studied are dissolved in polyethylene glycol 300 and pre-incubated for 1 min at 37° C. under a volume of 10 microliters,in a mixture of 300 microliters of plasma rich in platelets and 90 microliters of Tyrode's solution without calcium, pH=7.4. (Corresponding controls are produced by pre-incubating the vehicle on its own instead of solutions of products to be studied).\n(§5) The blood platelet aggregation is initiated by the addition either of U.46619 (final concentrations: 1.05 to 2.44 micromoles) or of arachidonic acid (final concentrations: 50 to 100 micromoles).\n(§6) Starting from the parameter of the maximum percentage aggregation, the anti-aggregant activity of a product is calculated using the formula: [formula]\nOne curve: anti-aggregant activity=f (final concentration) is plotted for each product and the 50% inhibitory concentration determined from the graph.\nIn the case of aggregation with U.46619, the IC50 are given in Table I for compounds 1, 2, 3, 7 and 11 by way of non-limiting example: […]"}, "conventional mice": {"test_system": "conventional mice", "test": "Toxicology, intraperitoneal, mice", "format": "in vivo", "conditions": "500 mg per kilo intraperitoneally", "protocol": "The chemical compounds described above were subjected to toxicity checks. This study was carried out on conventional mice weighing from 20 to 22 g. The compounds of general formula I were administered intraperitoneally."}, "Solubility in DMSO": {"test": "Solubility in DMSO", "format": "physicochemical"}, "[2]": {"test_system": "blood platelet aggregation induced by arachidonic acid", "test": "In vitro rabbit platelet aggregation induced by arachidonic acid", "format": "cell-based, New Zealand rabbits", "conditions": "arachidonic acid 50 to 100 micromoles", "protocol": "as §1, §2, §3, §4, §5, §6\nThe percentage inhibition of the aggregation with arachidonic acid is given in Table II for compounds 2 and 3 by way of non-limiting examples: […]"}, "[3]": {"test_system": "platelet aggregation induced by U.46619", "test": "Ex vivo inhibition of U.46619-induced platelet aggregation after oral administration in rabbits", "set-up": "species or system New Zealand rabbits", "conditions": "t=+90 min relative to control curve at t=0", "protocol": "b) Ex vivo action: inhibition of anti-aggregant effects using U.46619 in rabbits.\nBecause of their powerful activity in vitro, the anti-aggregant effects ex vivo were studied in rabbits. The substances of general formula I, which are the subject of the present invention, are administered orally as a 1% suspension in carboxymethylcellulose to natural male New Zealand rabbits weighing 2.5 to 3 kg after going without nourishment for about 18 h. Blood samples were taken by cardiac puncture at time 0 and after 90 min. The aggregant U.46619 was used under the same conditions as above and the measurement of the aggregation was carried out using the same technique.\nThe results are expressed in Table III in terms of percentage inhibition of the maximum amplitude of the aggregation curve at t=+90 min relative to the control curve at t=0 and are given for compounds 2 and 3 by way of non-limiting example: […]"}}, "note": "pIC50: −log10 of the molar value.", "data": [{"smiles": "O=C(CNS(=O)(=O)c1ccc(Cl)cc1)c1ccc2c(c1)CCC(C(=O)O)O2", "note": "(racemic) [Compound 27, dl-Lysine 6-(parachlorobenzenesulphonamidoacetyl)-2-chromancarboxylate]", "values": [{"measurement": "solubility", "setting": "Solubility in water", "result": 10, "unit": "mg/mL"}]}, {"smiles": "O=C(CNS(=O)(=O)c1ccc(Cl)cc1)c1ccc2c(c1)CC(C(=O)O)C2", "note": "(racemic) [Compound 29, dl-Lysine 5-(parachlorobenzenesulphonamidoacetyl)-2-indanecarboxylate]", "values": [{"measurement": "solubility", "setting": "Solubility in water", "result": 5, "unit": "mg/mL"}]}, {"smiles": "O=C(CNS(=O)(=O)c1ccc(Cl)cc1)c1ccc2c(c1)CC(C(=O)O)O2", "note": "(stereo not drawn) [Compound 1, 5-(parachlorobenzenesulphonamidoacetyl)-2,3-dihydro-2-benzofurancarboxylicacid]", "values": [{"measurement": "pIC50", "setting": "[1]", "result": 6.22}, {"measurement": "fatality", "setting": "conventional mice", "result": "not a single fatality"}, {"measurement": "toxicity", "setting": "conventional mice", "result": "atoxic"}, {"measurement": "soluble in DMSO to give a solution of", "setting": "Solubility in DMSO", "result": 10, "unit": "%"}]}, {"smiles": "O=C(O)C1Cc2cc(CCNS(=O)(=O)c3ccc(Cl)cc3)ccc2O1", "note": "(stereo not drawn) [Compound 2, 5-(2-parachlorobenzenesulphonamidoethyl)-2,3-dihydro-2-benzofurancarboxylic acid]", "values": [{"measurement": "pIC50", "setting": "[1]", "result": 6.30}, {"measurement": "inhibition at 100 µM", "setting": "[2]; Oryctolagus cuniculus, Platelet, final concentration of compound 10^-4 M", "result": -100, "unit": "%"}, {"measurement": "inhibition at 10 µM", "setting": "[2]; Oryctolagus cuniculus, Platelet, final concentration of compound 10^-5 M", "result": -79, "unit": "%"}, {"measurement": "% inhibition of platelet aggregation", "setting": "[2]; final concentration of compound 5.10^-6 M", "result": -31, "unit": "%"}, {"measurement": "% inhibition of aggregation", "setting": "[3]; 5 mg/kg orally", "result": -64, "unit": "%"}, {"measurement": "% inhibition of aggregation", "setting": "[3]; 10 mg/kg orally", "result": -98, "unit": "%"}, {"measurement": "fatality", "setting": "conventional mice", "result": "not a single fatality"}, {"measurement": "toxicity", "setting": "conventional mice", "result": "atoxic"}, {"measurement": "soluble in DMSO to give a solution of", "setting": "Solubility in DMSO", "result": 10, "unit": "%"}]}, {"smiles": "O=C(O)C1Cc2cc(CCNS(=O)(=O)c3ccc(Cl)cc3)ccc2O1", "note": "(stereo not drawn) [Compound 4, 5-(2-parachlorobenzenesulphonamidoethyl)-2,3-dihydro-2-benzofurancarboxylic acid monohydrate]", "values": [{"measurement": "soluble in DMSO to give a solution of", "setting": "Solubility in DMSO", "result": 10, "unit": "%"}]}, {"smiles": "CC(NS(=O)(=O)c1ccc(Cl)cc1)C(=O)c1ccc2c(c1)CC(C(=O)O)O2", "note": "(stereo not drawn) [Compound 5, 5-(α-methylparachlorobenzenesulphonamidoacetyl)-2,3-dihydro-2-benzofurancarboxylic acid]", "values": [{"measurement": "soluble in DMSO to give a solution of", "setting": "Solubility in DMSO", "result": 10, "unit": "%"}]}, {"smiles": "CC(NS(=O)(=O)c1ccc(Cl)cc1)C(O)c1ccc2c(c1)CC(C(=O)O)O2", "note": "(stereo not drawn) [Compound 6, 5-(2-Parachlorobenzenesulphonamido-1-hydroxypropyl)-2,3-dihydro-2-benzofurancarboxylic acid]", "values": [{"measurement": "soluble in DMSO to give a solution of", "setting": "Solubility in DMSO", "result": 5, "unit": "%"}]}, {"smiles": "O=C(O)C1CCc2cc(CCNS(=O)(=O)c3ccc(Cl)cc3)ccc2O1", "note": "(stereo not drawn) [Compound 7, 6-(2-Parachlorobenzenesulphonamidoethyl)-2-chromancarboxylic acid]", "values": [{"measurement": "pIC50", "setting": "[1]", "result": 6.30}, {"measurement": "soluble in DMSO to give a solution of", "setting": "Solubility in DMSO", "result": 20, "unit": "%"}]}, {"smiles": "O=C(O)C1Oc2ccc(CCNS(=O)(=O)c3ccc(Cl)cc3)cc2O1", "note": "(stereo not drawn) [Compound 8, 5-(2-Parachlorobenzenesulphonamidoethyl)-1,3-benzodioxole-2-carboxylic acid]", "values": [{"measurement": "soluble in DMSO to give a solution of", "setting": "Solubility in DMSO", "result": 20, "unit": "%"}]}, {"smiles": "O=C(O)C1Cc2ccc(CCNS(=O)(=O)c3ccc(Cl)cc3)cc2C1", "note": "(stereo not drawn) [Compound 9, 5-(2-parachlorobenzenesulphonamidoethyl)-2-indanecarboxylic acid]", "values": [{"measurement": "soluble in DMSO to give a solution of", "setting": "Solubility in DMSO", "result": 10, "unit": "%"}]}, {"smiles": "O=C(O)C1Cc2cc(CCNS(=O)(=O)c3ccc(Cl)cc3)ccc2S1", "note": "(stereo not drawn) [Compound 10, 5-(2-Parachlorobenzenesulphonamidoethyl)-2,3-dihydro-2-benzothiophenecarboxylic acid]", "values": [{"measurement": "soluble in DMSO to give a solution of", "setting": "Solubility in DMSO", "result": 20, "unit": "%"}]}, {"smiles": "O=C(O)c1cc2cc(CCNS(=O)(=O)c3ccc(Cl)cc3)ccc2o1", "note": "[Compound 11, 5-(2-Parachlorobenzenesulphonamidoethyl)-2-benzofurancarboxylic acid]", "values": [{"measurement": "pIC50", "setting": "[1]", "result": 5.70}, {"measurement": "soluble in DMSO to give a solution of", "setting": "Solubility in DMSO", "result": 5, "unit": "%"}]}, {"smiles": "O=C(O)C1Cc2cc(C(CNS(=O)(=O)c3ccc(Cl)cc3)=NO)ccc2O1", "note": "(stereo not drawn) [Compound 13]", "values": [{"measurement": "soluble in DMSO to give a solution of", "setting": "Solubility in DMSO", "result": 10, "unit": "%"}]}, {"smiles": "CON=C(CNS(=O)(=O)c1ccc(Cl)cc1)c1ccc2c(c1)CC(C(=O)O)O2", "note": "(stereo not drawn) [Compound 14, 5-(2-parachlorobenzenesulphonamido-1-methoxyiminoethyl)-2,3-dihydro-2-benzofurancarboxylic acid]", "values": [{"measurement": "soluble in DMSO to give a solution of", "setting": "Solubility in DMSO", "result": 10, "unit": "%"}]}, {"smiles": "Cc1ccc(S(=O)(=O)N(C)CC(=O)c2ccc3c(c2)CC(C(=O)O)O3)cc1", "note": "(stereo not drawn) [Compound 16, 5-(N-methylparatoluenesulphonamidoacetyl)-2,3-dihydro-2-benzofurancarboxylic acid]", "values": [{"measurement": "soluble in DMSO to give a solution of", "setting": "Solubility in DMSO", "result": 10, "unit": "%"}]}, {"smiles": "O=C(O)C1Cc2cc(CCNS(=O)(=O)c3ccc(Cl)cc3)ccc2O1", "note": "(stereo not drawn) [Compound 17, Sodium 5-(2-parachlorobenzenesulphonamidoethyl)-2,3-dihydro-2-benzofurancarboxylate]", "values": [{"measurement": "solubility", "setting": "Solubility in water", "result": 15, "unit": "mg/mL"}]}, {"smiles": "CCOC(=O)C1CCc2cc(C(=O)CNS(=O)(=O)c3ccc(Cl)cc3)ccc2O1", "note": "(stereo not drawn) [Compound 20, ethyl 6-(parachlorobenzenesulphonamidoacetyl)-2-chromancarboxylate]", "values": [{"measurement": "soluble in DMSO to give a solution of", "setting": "Solubility in DMSO", "result": 25, "unit": "%"}, {"measurement": "solubility in water", "setting": "Solubility in water", "result": "insoluble in water"}]}, {"smiles": "O=C(CNS(=O)(=O)c1ccc(Cl)cc1)c1ccc2c(c1)CCC(C(=O)O)O2", "note": "(stereo not drawn) [Compound 21, 6-(parachlorobenzenesulphonamidoacetyl)-2-chromancarboxylic acid]", "values": [{"measurement": "soluble in DMSO to give a solution of", "setting": "Solubility in DMSO", "result": 25, "unit": "%"}, {"measurement": "solubility in water", "setting": "Solubility in water", "result": "insoluble in water"}]}, {"smiles": "O=C(CNS(=O)(=O)c1ccccc1)c1ccc2c(c1)CC(C(=O)O)O2", "note": "(stereo not drawn) [Compound 22, 5-(benzenesulphonamidoacetyl)-2,3-dihydro-2-benzofurancarboxylic acid]", "values": [{"measurement": "soluble in DMSO to give a solution of", "setting": "Solubility in DMSO", "result": 25, "unit": "%"}, {"measurement": "solubility in water", "setting": "Solubility in water", "result": "insoluble in water"}]}, {"smiles": "COc1ccc(S(=O)(=O)NCC(=O)c2ccc3c(c2)CC(C(=O)O)O3)cc1", "note": "(stereo not drawn) [Compound 23, 5-paramethoxybenzenesulphonamidoacetyl-2,3-dihydro-2-benzofurancarboxylic acid]", "values": [{"measurement": "soluble in DMSO to give a solution of", "setting": "Solubility in DMSO", "result": 30, "unit": "%"}]}, {"smiles": "O=C(CNS(=O)(=O)c1c(F)c(F)c(F)c(F)c1F)c1ccc2c(c1)CC(C(=O)O)O2", "note": "(stereo not drawn) [Compound 24, 5-Pentafluorobenzenesulphonamidoacetyl-2,3-dihydro-2-benzofurancarboxylic acid]", "values": [{"measurement": "soluble in DMSO to give a solution of", "setting": "Solubility in DMSO", "result": 20, "unit": "%"}, {"measurement": "solubility in water", "setting": "Solubility in water", "result": "insoluble in water"}]}, {"smiles": "O=C(CNS(=O)(=O)c1ccc(Cl)cc1)c1ccc2c(c1)CC(C(=O)O)O2", "note": "(stereo not drawn) [Compound 25, (dl)-Lysine 5-parachlorobenzenesulphonamidoacetyl-2,3-dihydro-2-benzofurancarboxylate trihydrate]", "values": [{"measurement": "solubility", "setting": "Solubility in water", "result": 10, "unit": "mg/mL"}]}, {"smiles": "O=C(O)C1CCc2cc(CCNS(=O)(=O)c3ccc(Cl)cc3)ccc2O1", "note": "(stereo not drawn) [Compound 26, (dl)-Lysine 6-(2-parachlorobenzenesulphonamidoethyl)-2-chromancarboxylate]", "values": [{"measurement": "solubility", "setting": "Solubility in water", "result": 10, "unit": "mg/mL"}]}, {"smiles": "O=C(CNS(=O)(=O)c1ccc(Cl)cc1)c1ccc2c(c1)CC(C(=O)O)C2", "note": "(stereo not drawn) [Compound 28, 5-(Parachlorobenzenesulphonamidoacetyl)-2-indanecarboxylic acid]", "values": [{"measurement": "soluble in DMSO to give a solution of", "setting": "Solubility in DMSO", "result": 15, "unit": "%"}, {"measurement": "solubility in water", "setting": "Solubility in water", "result": "insoluble in water"}]}]}
